Measurements as given in patent US20050042711A1, “Field test for fungi” (GEORGE MASON UNIVERSITY, priority 2003, published 2005).

Tests used:
[1] = test system: bacteria inoculated into the medium; settings: nicotinic acid 0.1 M; three to four days
Procedure: (§1) The base ISTOR medium has the following composition:
(§2) The medium was prepared in potassium phosphate buffer at pH 5.7.

fungi tested = settings: nicotinic acid 0.1 M; three to four days
Procedure: as §1, §2

SMILES: O=C(O)c1cccnc1 [nicotinic acid]
- solubility in water: not very soluble in water
- growth of bacteria [1]: none of the bacteria inoculated into the medium grew
- growth of fungi (fungi tested): all of the fungi tested exhibited growth
